# Assay results reported in PubChem BioAssay (NCI).
# Where “and” joins values, the source holds several entries; their conditions need not be identical. Equal values may be shown once.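 Compound exposure: 48 hours, 5 concentrations, 96-well plates. The concentration for 50% growth inhibition is given as GI50. The concentration for full growth arrest is given as TGI.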
# What was measured:
# Test in all cases: NCI tumour cell line growth inhibition, 48 h
# NCI-H23 lung = system: NCI-H23 lung
# NCI-H460 lung = system: NCI-H460 lung
# NCI-H522 lung = system: NCI-H522 lung
# NCI/ADR-RES ovarian = system: NCI/ADR-RES ovarian
# OVCAR-3 ovarian = system: OVCAR-3 ovarian
# OVCAR-4 ovarian = system: OVCAR-4 ovarian
# OVCAR-5 ovarian = system: OVCAR-5 ovarian
# OVCAR-8 ovarian = system: OVCAR-8 ovarian
# PC-3 prostate = system: PC-3 prostate
# RPMI-8226 leukemia = system: RPMI-8226 leukemia
# RXF 393 renal = system: RXF 393 renal
# SF-268 CNS = system: SF-268 CNS
# SF-295 CNS = system: SF-295 CNS
# SF-539 CNS = system: SF-539 CNS
# SK-MEL-2 melanoma = system: SK-MEL-2 melanoma
# SK-MEL-28 melanoma = system: SK-MEL-28 melanoma
# SK-MEL-5 melanoma = system: SK-MEL-5 melanoma
# SK-OV-3 ovarian = system: SK-OV-3 ovarian
# SN12C renal = system: SN12C renal
# SNB-19 CNS = system: SNB-19 CNS
# SNB-75 CNS = system: SNB-75 CNS
# SR leukemia = system: SR leukemia
# SW-620 colon = system: SW-620 colon
# T-47D breast = system: T-47D breast
# TK-10 renal = system: TK-10 renal
# U251 CNS = system: U251 CNS
# UACC-257 melanoma = system: UACC-257 melanoma
# UACC-62 melanoma = system: UACC-62 melanoma
# UO-31 renal = system: UO-31 renal
compound,measurement,setting,value
CNC(=O)c1ccc(Nc2ncc(C(F)(F)F)c(NCc3nccnc3N(C)S(C)(=O)=O)n2)cc1,TGI,NCI-H23 lung,8.64 µM and 7 µM
same,GI50,NCI-H460 lung,2.05 µM and 2.75 µM and 2.16 µM
same,TGI,NCI-H460 lung,> 10 µM and 10.2 µM and 11.1 µM
same,GI50,NCI-H522 lung,1.97 µM and 2.52 µM and 2.76 µM
same,TGI,NCI-H522 lung,7.06 µM and 13.3 µM and 7.4 µM
same,GI50,NCI/ADR-RES ovarian,8.27 µM and 8.53 µM
same,TGI,NCI/ADR-RES ovarian,> 10 µM and 25.9 µM and 27.1 µM
same,GI50,OVCAR-3 ovarian,3.16 µM and 2.26 µM and 2.71 µM
same,TGI,OVCAR-3 ovarian,> 10 µM and 8.43 µM and 12.8 µM
same,GI50,OVCAR-4 ovarian,5.37 µM and 2.41 µM and 1.9 µM
same,TGI,OVCAR-4 ovarian,> 10 µM and 12.8 µM and 10.5 µM
same,GI50,OVCAR-5 ovarian,2.18 µM and 1.98 µM and 1.93 µM
same,TGI,OVCAR-5 ovarian,> 10 µM and 9.03 µM and 9.56 µM
same,GI50,OVCAR-8 ovarian,3.44 µM and 3.69 µM and 3.83 µM
same,TGI,OVCAR-8 ovarian,> 10 µM and 13.6 µM and 18 µM
same,GI50,PC-3 prostate,3.54 µM and 3.41 µM and 2.85 µM
same,TGI,PC-3 prostate,> 10 µM and 14.3 µM and 13.2 µM
same,GI50,RPMI-8226 leukemia,2.59 µM and 2.95 µM and 2.27 µM
same,TGI,RPMI-8226 leukemia,6.9 µM and 8.16 µM and 7.58 µM
same,GI50,RXF 393 renal,0.637 µM and 1.39 µM and 0.575 µM
same,TGI,RXF 393 renal,2.74 µM and 3.76 µM and 2.85 µM
same,GI50,SF-268 CNS,2.89 µM and 2.23 µM and 2.73 µM
same,TGI,SF-268 CNS,> 10 µM and 8.63 µM and 11 µM
same,GI50,SF-295 CNS,3.04 µM and 2.6 µM and 2.61 µM
same,TGI,SF-295 CNS,> 10 µM and 10.9 µM and 12.9 µM
same,GI50,SF-539 CNS,1.86 µM and 1.99 µM and 1.82 µM
same,TGI,SF-539 CNS,4.76 µM and 5.11 µM and 4.9 µM
same,GI50,SK-MEL-2 melanoma,0.783 µM and 1.32 µM and 1.6 µM
same,TGI,SK-MEL-2 melanoma,3.71 µM and 4.28 µM and 4.63 µM
same,GI50,SK-MEL-28 melanoma,3.96 µM and 2.88 µM and 2.64 µM
same,TGI,SK-MEL-28 melanoma,> 10 µM and 9.49 µM and 9.43 µM
same,GI50,SK-MEL-5 melanoma,1.85 µM and 2.1 µM and 2.09 µM
same,TGI,SK-MEL-5 melanoma,4.59 µM and 4.55 µM and 5.49 µM
same,GI50,SK-OV-3 ovarian,3.16 µM and 2.27 µM and 2.41 µM
same,TGI,SK-OV-3 ovarian,> 10 µM and 9.35 µM and 11.4 µM
same,GI50,SN12C renal,3.46 µM and 3.4 µM and 3.41 µM
same,TGI,SN12C renal,> 10 µM and 11.8 µM and 14.7 µM
same,GI50,SNB-19 CNS,3.21 µM and 3.17 µM and 3.31 µM
same,TGI,SNB-19 CNS,> 10 µM and 13.3 µM and 14.7 µM
same,GI50,SNB-75 CNS,1.52 µM and 1.41 µM
same,TGI,SNB-75 CNS,4.9 µM
same,GI50,SR leukemia,1.91 µM and 1.33 µM and 2.39 µM
same,TGI,SR leukemia,8.17 µM and 7.7 µM and 9.42 µM
same,GI50,SW-620 colon,2.82 µM and 3.21 µM and 2.74 µM
same,TGI,SW-620 colon,> 10 µM and 9.82 µM and 11.7 µM
same,GI50,T-47D breast,3.47 µM and 3.46 µM and 2.9 µM
same,TGI,T-47D breast,> 10 µM and 12.5 µM and 10.4 µM
same,GI50,TK-10 renal,1.65 µM and 1.7 µM and 3.09 µM
same,TGI,TK-10 renal,> 10 µM and 10.4 µM and 13.3 µM
same,GI50,U251 CNS,3.29 µM and 3.18 µM and 2.88 µM
same,TGI,U251 CNS,> 10 µM and 12 µM and 13.6 µM
same,GI50,UACC-257 melanoma,4.66 µM and 3.75 µM
same,TGI,UACC-257 melanoma,> 10 µM and 11.2 µM and 15.5 µM
same,GI50,UACC-62 melanoma,1.76 µM and 1.66 µM and 1.63 µM
same,TGI,UACC-62 melanoma,> 10 µM and 4.37 µM and 4.24 µM
same,GI50,UO-31 renal,1.03 µM and 1.94 µM and 2.14 µM
same,TGI,UO-31 renal,5.12 µM and 6.97 µM and 8.22 µM
